Data published in patent US11415571B2, “Large scale organoid analysis” (Tempus Labs, Inc., priority 2019, dated 2022).

Tests used:
[1] = test system: first lung cancer tumor organoid line; experiment: high throughput tumor organoid drug screen, per-organoid viability histogram; details: 10,000 nM dose
Method: (§1) TOs were dissociated as described above and resuspended in a 30:70% mix of GFR Matrigel:growth media at a concentration of 100 cells/μl. The solution was added to 384-well assay plates (Corning) at 20 μl per well for a final concentration of 2,000 cells per well. Assay plates were covered with a Breathe-Easy sealing membrane (Sigma Aldrich) to prevent evaporation. TOs were grown for 72 hours before drug addition. Drugs were prepared in growth media with 2.5 μM Caspase-3/7 Green Apoptosis Assay Reagent (Essen Bioscience). Serial dilutions of each molecule were prepared in 384-well polystyrene plates (Nunc). Diluted drug was added to the assay plate using an Integra Viaflo pipette (Integra) mounted on an Integra Assist Plus Pipetting Robot (Integra). Assay plates were again covered with a Breathe-Easy sealing membrane and TOs were exposed to drugs for another 72 hours before imaging.
(§2) Prior to imaging, TOs were incubated with 4 μM Hoechst 33342 (Fisher Scientific) and 300 nM TO-PRO-3 Iodide (642/661) (Invitrogen) for 1.5-2 hours. Assay plates were imaged using an ImageXpress Micro Confocal (Molecular Devices) at 10× magnification so that ˜100-200 TOs were imaged per well. Images were acquired as 4×15 μm Z-stacks and the 2D projections were analyzed to assess cell viability. Confocal images were analyzed using the MetaXpress software (Molecular Devices) custom module editor feature to design an analysis module that identified TOs by clusters of Hoechst 33342 staining, individual cells by Hoechst 33342 staining, and dead/dying cells by either TO-PRO-3 or Caspase-3/7 staining. The result of this analysis module is a spreadsheet detailing the number of live and dead cells for every individual organoid.
(§3) The percentage of viable cells per organoid was calculated based on the image analysis described above. Organoids with fewer than three cells and larger than the top one percent by size were excluded from analysis. The mean viability for all organoids at a given drug concentration was used in dose-response curves to calculate AUC. AUC was calculated using the computeAUC function using settings for “actual” AUC of the R Package PharmacoGx (v1.17.1). Heatmaps of AUC values were generated using the Pheatmap package (v1.0.12) in R. Scatterplots of AUC values were generated using the ggplot2 package (v3.3.0) in R.
(§4) In this example, data for each therapy is presented as a histogram. […] Viability was determined by the systems and methods disclosed above.
(§5) Each tumor organoid line in these examples was cultured individually in wells of a tissue culture plate, as described above.
In this example, tissue culture wells containing a first lung cancer tumor organoid line were each exposed to one of the therapies listed above.

[2] = test system: second lung cancer tumor organoid line; experiment: as above; details: for viability at 10 µM: Homo sapiens, read-out: mean viability for all organoids in the plot; for organoids of the line that are resistant to the drug / organoids with 0% viability (susceptible to the drug) / organoids with 100% viability (resistant to the drug): caspase 3/7 readout, 10,000 nM dose
Method: as §1, §2, §3, §4, §5
In this example, tissue culture wells containing a second lung cancer tumor organoid line were each exposed to one of the therapies listed above.

[3] = test system: gastric cancer tumor organoid line; experiment: cells; details: for organoids of the line that are resistant to the drug / organoids with 0% viability (susceptible to the drug) / organoids with 100% viability (resistant to the drug): caspase 3/7 readout, 10,000 nM dose
Method: as §1, §2, §3, §4, §5
In this example, tissue culture wells containing a gastric cancer tumor organoid line were each exposed to one of the therapies listed above.

[4] = test system: first endometrial cancer tumor organoid line; experiment: high throughput tumor organoid drug screen, per-organoid viability histogram; details: caspase 3/7 readout; 10,000 nM dose
Method: as §1, §2, §3, §4, §5
In this example, tissue culture wells containing a first endometrial cancer tumor organoid line were each exposed to one of the therapies listed above.

[5] = test system: colorectal cancer tumor organoid line; experiment: as above; format: cell-based, human; details: caspase 3/7 readout, 10,000 nM dose
Method: as §1, §2, §3, §4, §5
In this example, tissue culture wells containing a colorectal cancer tumor organoid line were each exposed to one of the therapies listed above.

[6] = test system: colon cancer tumor organoid line; experiment: as above; format: cell-based, human; details: caspase 3/7 readout, 10,000 nM dose; for viability at 10 µM: Homo sapiens, read-out: mean viability for all organoids in the plot
Method: as §1, §2, §3, §4, §5
In this example, tissue culture wells containing a colon cancer tumor organoid line were each exposed to one of the therapies listed above.

[7] = test system: second endometrial cancer tumor organoid line; experiment: as above
Method: as §1, §2, §3, §4, §5
In this example, tissue culture wells containing a second endometrial cancer tumor organoid line were each exposed to one of the therapies listed above.

[8] = Homo sapiens, read-out: mean viability for all organoids in the plot
[9] = caspase 3/7 readout, 10,000 nM dose

Compound: C[C@@]1(CO)[C@H](O)CC[C@@]2(C)[C@H]1CC[C@H]1C[C@@H]3C[C@@]12CC[C@]3(O)CO [Aphidicolin]
- organoids of the line that are resistant to the drug ([1]; caspase 3/7 readout): presence of organoids
- viability at 10 µM [2]: ~30%
- organoids of the line that are resistant to the drug [2]: presence of a small proportion
- organoids with 0% viability (susceptible to the drug) [2]: Approximately 50 organoids
- organoids with 100% viability (resistant to the drug) [2]: Approximately 15 organoids

Compound: CC(=O)O/N=C1/C(=C2/C(=O)Nc3cc(Br)ccc32)Nc2ccccc21 [BIO-acetoxime]
- organoids of the line that are resistant to the drug [3]: general absence
- organoids with 0% viability (susceptible to the drug) [3]: Approximately 150 organoids
- organoids with 100% viability (resistant to the drug) [3]: Approximately 20 organoids

Compound: CC(C)C[C@H](NC(=O)[C@H](Cc1ccccc1)NC(=O)c1cnccn1)B(O)O [Bortezomib]
- viability at 10 µM [3, 8]: ~15%
- organoids of the line that are resistant to the drug [3]: general absence
- organoids with 0% viability (susceptible to the drug) [3]: Approximately 225 organoids
- organoids with 100% viability (resistant to the drug) [3]: Approximately 15 organoids

Compound: N.N.[Cl][Pt][Cl] [Cisplatin]
- organoids of the line that are resistant to the drug [4]: general absence
- organoids with 0% viability (susceptible to the drug) [4]: Approximately 60 organoids
- organoids with 100% viability (resistant to the drug) [4]: Approximately 5 organoids

Compound: CC(=O)O[C@@]12CO[C@@H]1C[C@H](O)[C@@]1(C)C(=O)[C@H](O)C3=C(C)[C@@H](OC(=O)[C@H](O)[C@@H](NC(=O)OC(C)(C)C)c4ccccc4)C[C@@](O)([C@@H](OC(=O)c4ccccc4)[C@H]21)C3(C)C [Docetaxel]
- viability at 10 µM [5, 8]: ~45%
- organoids of the line that are resistant to the drug [5]: presence of organoids
- organoids with 0% viability (susceptible to the drug) [5]: Approximately 35 organoids
- organoids with 100% viability (resistant to the drug) [5]: Approximately 30 organoids
- viability at 10 µM [6]: ~20%
- organoids of the line that are resistant to the drug [6]: general absence
- organoids with 0% viability (susceptible to the drug) [6]: Approximately 70 organoids
- organoids with 100% viability (resistant to the drug) [6]: Approximately 15 organoids
- viability at 10 µM [2]: ~30%
- organoids of the line that are resistant to the drug [2]: presence of a small proportion
- organoids with 0% viability (susceptible to the drug) [2]: Approximately 50 organoids
- organoids with 100% viability (resistant to the drug) [2]: Approximately 20 organoids

Compound: O=c1[nH]cc(F)c(=O)[nH]1 [Fluorouracil]
- viability at 10 µM [6]: ~25%
- organoids of the line that are resistant to the drug [6]: general absence
- organoids with 0% viability (susceptible to the drug) [6]: Approximately 70 organoids
- organoids with 100% viability (resistant to the drug) [6]: Approximately 10 organoids

Compound: Nc1ccn([C@@H]2O[C@H](CO)[C@@H](O)C2(F)F)c(=O)n1 [Gemcitabine]
- viability at 10 µM ([1]; Homo sapiens, read-out: mean viability for all organoids in the plot, caspase 3/7 readout): ~35%
- organoids of the line that are resistant to the drug ([1]; caspase 3/7 readout): presence of a small proportion
- organoids with 100% viability (resistant to the drug) ([1]; caspase 3/7 readout): Approximately 15 organoids
- viability at 10 µM [2]: ~35%
- organoids of the line that are resistant to the drug [2]: presence of a small proportion
- organoids with 0% viability (susceptible to the drug) [2]: Approximately 30 organoids
- organoids with 100% viability (resistant to the drug) [2]: Approximately 10 organoids

Compound: CCS(=O)(=O)Nc1ccc2c(c1)/C(=C(/Nc1ccc(CN3CCCCC3)cc1)c1ccccc1)C(=O)N2 [Hesperadin]
- viability at 10 µM [7, 8]: ~20%
- organoids with 0% viability (susceptible to the drug) [7, 9]: Approximately 100 organoids
- organoids with 100% viability (resistant to the drug) [7, 9]: Approximately 5 organoids
